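Briefly, cells in 96-well plates were exposed to five compound concentrations for 48 h, and endpoints were estimated by linear interpolation. GI50 is the concentration that inhibits growth by half.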 The source made the active and inactive calls. No stated cut-off is given here; in the data, active = GI50 up to about 1.1 µM and inactive = higher.
Columns and labels:
Experiment in all cases: NCI anticancer screen, dose series, 48 h
NCI-H522 = test system: NCI-H522
A498 = test system: A498
TK-10 = test system: TK-10
A549 = test system: A549
KM12 = test system: KM12
OVCAR-5 = test system: OVCAR-5
OVCAR-8 = test system: OVCAR-8
OVCAR-4 = test system: OVCAR-4
IGROV-1 = test system: IGROV-1
K562 = test system: K562
SW-620 = test system: SW-620
HCC 2998 = test system: HCC 2998
RPMI-8226 = test system: RPMI-8226
HOP-62 = test system: HOP-62
SK-MEL-5 = test system: SK-MEL-5
SF-268 = test system: SF-268
LOX IMVI = test system: LOX IMVI
PC-3 = test system: PC-3
MDA-MB-435 = test system: MDA-MB-435
Hs-578T = test system: Hs-578T

Structure (SMILES) | GI50 (NCI-H522) | GI50 (A498) | GI50 (TK-10) | GI50 (A549) | GI50 (KM12) | GI50 (OVCAR-5) | GI50 (OVCAR-8) | GI50 (OVCAR-4) | GI50 (IGROV-1) | GI50 (K562) | GI50 (SW-620) | GI50 (HCC 2998) | GI50 (RPMI-8226) | GI50 (HOP-62) | GI50 (SK-MEL-5) | GI50 (SF-268) | GI50 (LOX IMVI) | GI50 (PC-3) | GI50 (MDA-MB-435) | GI50 (Hs-578T)
NC(=S)N/N=C/c1nccc2ccccc12 | 0.719 µM (active) | 0.515 µM (active) | 4.93 µM (inactive) | 0.409 µM (active) | 0.873 µM (active) | 0.685 µM (active) | 0.313 µM (active) | 0.54 µM (active) | 0.762 µM (active) | 2.73 µM (inactive) | 0.802 µM (active) | 0.664 µM (active) | 1.22 µM (inactive) | 0.619 µM (active) | 0.467 µM (active) | 0.377 µM (active) | 0.322 µM (active) |  |  | 
COc1cc([C@@H]2c3cc4c(cc3[C@@H](NC(=O)c3cccc(C#N)c3)C3COC(=O)[C@@H]32)OCO4)cc(OC)c1O (some centres not stated) | 0.908 µM (active) | 1.26 µM (inactive) | 3.29 µM (inactive) | 0.0178 µM (active) | 1.39 µM (inactive) | 1.1 µM (active) | 1.19 µM (inactive) | 16.7 µM (inactive) | 1.05 µM (active) | 1.73 µM (inactive) | 0.583 µM (active) | 1.84 µM (inactive) | 7.14 µM (inactive) | 0.172 µM (active) | 0.815 µM (active) | 1.32 µM (inactive) | 0.398 µM (active) |  |  | 
C=C(C(=O)OC)[C@H]1CC/C(C)=C/CC[C@@](C)(O)C=CC[C@@]2(C)O[C@@H]2C1 |  | 20.7 µM (inactive) | 40.6 µM (inactive) | 81.3 µM (inactive) | 37.6 µM (inactive) | > 100 µM (inactive) | 13.9 µM (inactive) | 64.6 µM (inactive) | 46.6 µM (inactive) | > 10 µM (inactive) | 28.1 µM (inactive) | 42.1 µM (inactive) | 16.1 µM (inactive) | 44.3 µM (inactive) | 1.04 µM (active) | 19.6 µM (inactive) |  | 44.4 µM (inactive) | 17.3 µM (inactive) | 
CC1=Nc2ccccc2SC(c2c(Cl)cccc2Cl)C1 (configuration not stated) | 1.22 µM (inactive) | 2.12 µM (inactive) | 2.22 µM (inactive) | 1.88 µM (inactive) | 0.828 µM (active) | 2.39 µM (inactive) | 0.229 µM (active) | 1.98 µM (inactive) | 1.77 µM (inactive) | 0.327 µM (active) | 0.43 µM (active) | 1.6 µM (inactive) | 0.314 µM (active) | 2.15 µM (inactive) | 1.49 µM (inactive) | 1.01 µM (active) | 0.277 µM (active) |  |  | 
N#CCCN(c1ccc(/C=N/c2ccc(C(=O)O)cc2)cc1)S(=O)(=O)c1ccccc1 | > 100 µM (inactive) | > 100 µM (inactive) | > 100 µM (inactive) | > 100 µM (inactive) | > 100 µM (inactive) | > 100 µM (inactive) | > 100 µM (inactive) | > 100 µM (inactive) | > 100 µM (inactive) | > 100 µM (inactive) | > 100 µM (inactive) | > 100 µM (inactive) | > 100 µM (inactive) | > 100 µM (inactive) | > 100 µM (inactive) | > 100 µM (inactive) | > 100 µM (inactive) |  |  | 
Cc1ccc(/C(=C/C=C(C#N)C#N)Sc2cc(Cl)ccc2Cl)cc1 | 3.55 µM (inactive) |  | 2.92 µM (inactive) | 9.98 µM (inactive) | 4.78 µM (inactive) | 5.02 µM (inactive) | 2.37 µM (inactive) | 6.31 µM (inactive) | 8.41 µM (inactive) |  | 1.66 µM (inactive) |  |  | 3.71 µM (inactive) | 12.1 µM (inactive) | 5.97 µM (inactive) | 1.01 µM (active) |  | 2.43 µM (inactive) | 2.42 µM (inactive)
O=C1c2cccnc2S(=O)(=O)N1c1ccc(Oc2ccccc2)cc1 | > 100 µM (inactive) | > 100 µM (inactive) |  | 91.8 µM (inactive) | > 100 µM (inactive) | > 100 µM (inactive) | > 100 µM (inactive) | > 100 µM (inactive) | > 100 µM (inactive) | > 100 µM (inactive) | > 100 µM (inactive) | > 100 µM (inactive) | > 100 µM (inactive) | > 100 µM (inactive) |  | > 100 µM (inactive) |  | 72.3 µM (inactive) | > 100 µM (inactive) | 
Cc1ccc(CC(C)N)cc1 (configuration not stated) | > 100 µM (inactive) | > 100 µM (inactive) | > 100 µM (inactive) | > 100 µM (inactive) | > 100 µM (inactive) | > 100 µM (inactive) | > 100 µM (inactive) | > 100 µM (inactive) | > 100 µM (inactive) | > 100 µM (inactive) | > 100 µM (inactive) | > 100 µM (inactive) | > 100 µM (inactive) | > 100 µM (inactive) | > 100 µM (inactive) | > 100 µM (inactive) | > 100 µM (inactive) |  |  | 
CC(C)(c1ccc(Oc2ccc(C#N)c(C#N)c2)cc1)c1ccc(Oc2ccc(C#N)c(C#N)c2)cc1 | > 10 µM (inactive) | > 10 µM (inactive) | > 10 µM (inactive) | > 10 µM (inactive) | > 10 µM (inactive) | > 10 µM (inactive) | > 10 µM (inactive) | > 10 µM (inactive) | > 10 µM (inactive) | > 10 µM (inactive) | > 100 µM (inactive) | > 10 µM (inactive) | > 10 µM (inactive) | > 10 µM (inactive) | > 10 µM (inactive) | > 10 µM (inactive) | > 10 µM (inactive) |  |  | 
C=CC/N=C1\N=C(C)C(C(=O)OCC)S1 (configuration not stated) | > 100 µM (inactive) | > 100 µM (inactive) | > 100 µM (inactive) | > 100 µM (inactive) | > 100 µM (inactive) | > 100 µM (inactive) | > 100 µM (inactive) | > 100 µM (inactive) | > 100 µM (inactive) | > 100 µM (inactive) | > 100 µM (inactive) | > 100 µM (inactive) | > 100 µM (inactive) | > 100 µM (inactive) | > 100 µM (inactive) | > 100 µM (inactive) | > 100 µM (inactive) |  |  | 
C[Si]1(C)C(c2ccccc2)=CC2C(c3ccccc3)(c3ccccc3)OC21c1ccccc1 (configuration not stated) | > 100 µM (inactive) | > 100 µM (inactive) | > 100 µM (inactive) | > 100 µM (inactive) | > 100 µM (inactive) | > 100 µM (inactive) |  | > 100 µM (inactive) | > 100 µM (inactive) | 87.7 µM (inactive) | > 100 µM (inactive) | > 100 µM (inactive) | 30.1 µM (inactive) | > 100 µM (inactive) | 63.7 µM (inactive) | > 100 µM (inactive) | > 100 µM (inactive) |  |  | 
O=C1/C(=C/c2ccccc2)N=C(c2ccccc2)N1C1Nc2cc3c(cc2S1)NC(N1C(=O)/C(=C/c2ccccc2)N=C1c1ccccc1)S3 (configuration not stated) | 0.0258 µM (active) | 16.9 µM (inactive) | 30.5 µM (inactive) |  | 6.87 µM (inactive) | 64 µM (inactive) | 4.33 µM (inactive) | 51.1 µM (inactive) | 6.98 µM (inactive) | 10 µM (inactive) | 3.8 µM (inactive) | 2.04 µM (inactive) | 5.4 µM (inactive) | 16.9 µM (inactive) | 30.3 µM (inactive) | 5.61 µM (inactive) | 3.74 µM (inactive) | 11.8 µM (inactive) | 13.6 µM (inactive) | 
CC/C(CC(=O)CCC(=O)Nc1ccccc1[N+](=O)[O-])=N/NC(=O)C[n+]1ccccc1 | > 100 µM (inactive) | > 100 µM (inactive) | > 100 µM (inactive) | > 100 µM (inactive) | > 100 µM (inactive) | > 100 µM (inactive) | > 100 µM (inactive) | > 100 µM (inactive) | > 100 µM (inactive) | > 100 µM (inactive) | > 100 µM (inactive) | > 100 µM (inactive) | > 100 µM (inactive) | > 100 µM (inactive) | > 100 µM (inactive) | > 100 µM (inactive) | > 100 µM (inactive) |  |  | 
CC1CC/C(=C\c2ccc(Cl)cc2)c2nc(N)c(C#N)c(-c3ccc(Cl)cc3)c21 (configuration not stated) | 30.3 µM (inactive) | 26.3 µM (inactive) | 45.4 µM (inactive) | 34.8 µM (inactive) | 40.2 µM (inactive) | > 100 µM (inactive) | 63.2 µM (inactive) | > 100 µM (inactive) | 62.8 µM (inactive) | 31.5 µM (inactive) | 55.3 µM (inactive) | 26.1 µM (inactive) | 19.7 µM (inactive) | 70.6 µM (inactive) | 41.8 µM (inactive) |  | > 100 µM (inactive) | 13.8 µM (inactive) | 23.9 µM (inactive) | 
CC1CC(=O)NC2CC1C2(C)C (configuration not stated) | > 100 µM (inactive) |  | > 100 µM (inactive) | > 100 µM (inactive) | > 100 µM (inactive) | > 100 µM (inactive) | > 100 µM (inactive) | > 100 µM (inactive) | > 100 µM (inactive) | > 100 µM (inactive) | > 100 µM (inactive) | > 100 µM (inactive) | > 100 µM (inactive) |  | > 100 µM (inactive) | > 100 µM (inactive) | > 100 µM (inactive) |  | > 100 µM (inactive) | > 100 µM (inactive)
COc1ccc2nc3ccccc3c(NCCCCCCN(CCCl)CCCl)c2c1 | 0.0338 µM (active) | 0.405 µM (active) | 1.04 µM (active) | 0.054 µM (active) | 0.151 µM (active) | 0.45 µM (active) | 0.0627 µM (active) | 0.158 µM (active) | 0.148 µM (active) | 0.019 µM (active) | 0.0199 µM (active) | 0.226 µM (active) | 0.0122 µM (active) | 0.212 µM (active) | 0.304 µM (active) | 0.0649 µM (active) | 0.0199 µM (active) | 0.0514 µM (active) | 0.0482 µM (active) | 

— ChEMBL document CHEMBL1201862, “PubChem BioAssay data set” (2004)
